Laboratory results reported in ChEMBL document CHEMBL1201862, “PubChem BioAssay data set” (2004).
Calls of active or inactive are those of the source. For most assays here, no stated cut-off is given here; in the data, actives have a measured IC50 and inactives only a lower limit.

Tests used:
[1] = target: T1, DNA repair and recombination protein RAD54-like (Homo sapiens, UniProt Q92698); experiment: RAD54 Holliday junction migration blockers – biochemical, fluorescence, cherry-picked samples, dose series, confirmation (AID 651657); format: functional
T1 sequence (Q92698 whole entry): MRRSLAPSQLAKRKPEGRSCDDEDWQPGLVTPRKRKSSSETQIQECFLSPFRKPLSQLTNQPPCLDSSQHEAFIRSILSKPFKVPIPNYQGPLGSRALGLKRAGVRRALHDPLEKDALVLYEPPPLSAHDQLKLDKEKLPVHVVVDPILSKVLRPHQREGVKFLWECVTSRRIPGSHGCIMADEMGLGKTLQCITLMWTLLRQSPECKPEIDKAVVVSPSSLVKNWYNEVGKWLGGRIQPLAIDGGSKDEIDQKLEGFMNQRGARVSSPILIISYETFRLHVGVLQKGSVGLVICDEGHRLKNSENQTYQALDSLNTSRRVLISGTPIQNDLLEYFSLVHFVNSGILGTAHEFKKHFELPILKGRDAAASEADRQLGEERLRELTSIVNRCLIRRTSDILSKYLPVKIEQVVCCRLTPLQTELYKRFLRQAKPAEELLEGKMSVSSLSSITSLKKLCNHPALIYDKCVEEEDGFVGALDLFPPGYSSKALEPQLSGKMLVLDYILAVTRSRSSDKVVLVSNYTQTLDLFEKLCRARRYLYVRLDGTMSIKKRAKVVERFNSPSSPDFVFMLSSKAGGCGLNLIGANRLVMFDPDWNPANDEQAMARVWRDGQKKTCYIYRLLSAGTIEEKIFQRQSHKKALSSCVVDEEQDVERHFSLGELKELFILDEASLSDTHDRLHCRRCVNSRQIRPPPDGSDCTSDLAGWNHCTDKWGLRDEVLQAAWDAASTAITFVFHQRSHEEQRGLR

[2] = target: T2, Mannose-6-phosphate isomerase (Homo sapiens, UniProt P34949); experiment: MPI inhibition at elevated mannose 6-phosphate – biochemical, fluorescence intensity, high mannose 6-phosphate, primary screen (AID 1220)
T2 sequence (P34949 whole entry): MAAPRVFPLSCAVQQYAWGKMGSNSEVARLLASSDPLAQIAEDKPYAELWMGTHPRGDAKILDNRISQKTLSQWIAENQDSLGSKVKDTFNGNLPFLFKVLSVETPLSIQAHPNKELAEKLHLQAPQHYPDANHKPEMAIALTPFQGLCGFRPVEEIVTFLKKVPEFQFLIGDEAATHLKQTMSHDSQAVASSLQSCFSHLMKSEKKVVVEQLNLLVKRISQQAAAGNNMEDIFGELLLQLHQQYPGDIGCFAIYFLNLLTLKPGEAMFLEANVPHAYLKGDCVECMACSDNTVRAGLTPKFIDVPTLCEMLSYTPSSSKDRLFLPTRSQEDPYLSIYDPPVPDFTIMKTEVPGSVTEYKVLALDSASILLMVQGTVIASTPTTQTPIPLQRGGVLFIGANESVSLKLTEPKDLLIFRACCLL

[3] = target: T3, Sentrin-specific protease 7 (Homo sapiens, UniProt Q9BQF6); format: functional;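 further: Luminescence-based dose-response confirmation of ultra-high-throughput screening hits, measuring inhibition of SENP7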
T3 sequence (Q9BQF6 whole entry): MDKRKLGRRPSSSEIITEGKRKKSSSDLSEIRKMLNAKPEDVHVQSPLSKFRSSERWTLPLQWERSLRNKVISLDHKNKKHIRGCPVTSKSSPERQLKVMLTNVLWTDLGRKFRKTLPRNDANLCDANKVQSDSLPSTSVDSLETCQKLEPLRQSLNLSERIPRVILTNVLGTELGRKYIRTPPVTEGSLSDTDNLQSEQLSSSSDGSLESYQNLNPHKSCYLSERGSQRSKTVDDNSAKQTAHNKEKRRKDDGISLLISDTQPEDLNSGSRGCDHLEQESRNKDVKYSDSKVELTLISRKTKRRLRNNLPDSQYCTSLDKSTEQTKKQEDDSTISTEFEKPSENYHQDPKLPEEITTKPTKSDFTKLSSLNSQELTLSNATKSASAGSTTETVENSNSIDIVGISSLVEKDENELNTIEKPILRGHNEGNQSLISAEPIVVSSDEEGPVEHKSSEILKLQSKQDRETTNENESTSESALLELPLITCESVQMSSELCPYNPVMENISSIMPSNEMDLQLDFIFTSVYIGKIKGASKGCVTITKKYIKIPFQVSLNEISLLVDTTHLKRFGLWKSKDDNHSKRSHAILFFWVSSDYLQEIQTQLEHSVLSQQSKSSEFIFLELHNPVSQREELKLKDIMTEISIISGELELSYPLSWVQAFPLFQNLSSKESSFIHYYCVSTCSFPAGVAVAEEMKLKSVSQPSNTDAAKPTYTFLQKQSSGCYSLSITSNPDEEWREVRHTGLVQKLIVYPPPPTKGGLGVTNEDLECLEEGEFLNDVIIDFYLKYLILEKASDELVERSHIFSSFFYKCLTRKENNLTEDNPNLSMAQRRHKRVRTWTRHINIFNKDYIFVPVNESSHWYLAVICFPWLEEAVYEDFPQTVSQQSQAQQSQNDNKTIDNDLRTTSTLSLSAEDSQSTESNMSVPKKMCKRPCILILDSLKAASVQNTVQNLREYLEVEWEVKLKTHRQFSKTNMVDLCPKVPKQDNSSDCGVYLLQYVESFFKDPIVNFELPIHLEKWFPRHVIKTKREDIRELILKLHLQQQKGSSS

[4] = target: T4, Sentrin-specific protease 8 (Homo sapiens, UniProt Q96LD8); format: functional;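 further: luminescence read-out of SENP8 inhibition, dose-response confirmation following an ultra-high-throughput screen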
T4 sequence (Q96LD8 whole entry): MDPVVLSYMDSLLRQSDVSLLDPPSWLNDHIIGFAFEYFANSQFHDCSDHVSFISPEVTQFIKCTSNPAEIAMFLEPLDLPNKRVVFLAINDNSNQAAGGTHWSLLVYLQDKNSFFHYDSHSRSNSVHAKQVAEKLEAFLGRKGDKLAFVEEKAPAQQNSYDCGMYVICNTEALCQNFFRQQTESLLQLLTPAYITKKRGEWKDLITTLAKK

[5] = target: T5, Sentrin-specific protease 6 (Homo sapiens, UniProt Q9GZR1); format: functional;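 further: Luminescence-based dose-response confirmatory assay of SENP6 inhibition, following up an ultra-high-throughput screen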
T5 sequence (Q9GZR1 whole entry): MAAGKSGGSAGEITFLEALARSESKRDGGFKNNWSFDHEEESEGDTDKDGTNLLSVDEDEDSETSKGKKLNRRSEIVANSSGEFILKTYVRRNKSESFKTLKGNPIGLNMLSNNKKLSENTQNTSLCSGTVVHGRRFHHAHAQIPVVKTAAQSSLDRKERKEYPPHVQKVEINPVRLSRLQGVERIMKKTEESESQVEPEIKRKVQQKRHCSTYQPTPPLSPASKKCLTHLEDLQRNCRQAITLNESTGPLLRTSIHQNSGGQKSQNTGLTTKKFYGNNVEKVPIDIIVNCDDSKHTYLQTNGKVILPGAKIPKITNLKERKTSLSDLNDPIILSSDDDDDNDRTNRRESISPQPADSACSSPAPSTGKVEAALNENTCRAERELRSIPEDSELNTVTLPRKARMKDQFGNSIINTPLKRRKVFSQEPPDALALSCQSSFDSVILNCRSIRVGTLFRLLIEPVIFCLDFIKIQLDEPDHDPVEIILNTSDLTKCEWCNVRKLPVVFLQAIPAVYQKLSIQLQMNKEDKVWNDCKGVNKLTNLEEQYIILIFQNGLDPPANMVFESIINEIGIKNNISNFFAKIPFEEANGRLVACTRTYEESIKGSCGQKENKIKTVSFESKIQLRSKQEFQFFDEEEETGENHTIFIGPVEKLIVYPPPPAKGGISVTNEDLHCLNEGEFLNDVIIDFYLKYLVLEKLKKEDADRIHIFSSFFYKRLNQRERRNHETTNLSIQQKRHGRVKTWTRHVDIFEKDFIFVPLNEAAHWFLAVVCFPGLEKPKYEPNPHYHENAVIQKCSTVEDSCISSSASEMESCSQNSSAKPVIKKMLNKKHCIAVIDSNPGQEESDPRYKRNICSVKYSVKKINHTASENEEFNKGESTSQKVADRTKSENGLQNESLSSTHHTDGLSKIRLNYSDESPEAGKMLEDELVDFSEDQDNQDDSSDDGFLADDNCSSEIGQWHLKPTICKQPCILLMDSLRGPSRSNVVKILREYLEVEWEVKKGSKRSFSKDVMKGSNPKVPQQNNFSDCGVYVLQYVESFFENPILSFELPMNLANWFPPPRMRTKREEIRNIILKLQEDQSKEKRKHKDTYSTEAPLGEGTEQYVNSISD

[6] = target: T6, Caspase-3 (Homo sapiens, UniProt P42574); format: functional;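 further: Dose-response selectivity test against caspase-3 for candidate inhibitors of sentrin-specific proteases (SENPs)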
T6 sequence (P42574 whole entry): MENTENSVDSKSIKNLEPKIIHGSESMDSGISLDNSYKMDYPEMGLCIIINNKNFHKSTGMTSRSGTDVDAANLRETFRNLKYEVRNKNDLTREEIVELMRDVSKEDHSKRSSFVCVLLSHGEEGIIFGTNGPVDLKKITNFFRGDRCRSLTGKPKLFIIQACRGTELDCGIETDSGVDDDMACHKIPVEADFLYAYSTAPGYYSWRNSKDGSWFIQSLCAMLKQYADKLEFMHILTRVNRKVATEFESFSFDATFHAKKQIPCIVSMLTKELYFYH

[7] = target: T7, Protein skinhead-1 (Caenorhabditis elegans, UniProt P34707); format: functional
T7 sequence (P34707 whole entry): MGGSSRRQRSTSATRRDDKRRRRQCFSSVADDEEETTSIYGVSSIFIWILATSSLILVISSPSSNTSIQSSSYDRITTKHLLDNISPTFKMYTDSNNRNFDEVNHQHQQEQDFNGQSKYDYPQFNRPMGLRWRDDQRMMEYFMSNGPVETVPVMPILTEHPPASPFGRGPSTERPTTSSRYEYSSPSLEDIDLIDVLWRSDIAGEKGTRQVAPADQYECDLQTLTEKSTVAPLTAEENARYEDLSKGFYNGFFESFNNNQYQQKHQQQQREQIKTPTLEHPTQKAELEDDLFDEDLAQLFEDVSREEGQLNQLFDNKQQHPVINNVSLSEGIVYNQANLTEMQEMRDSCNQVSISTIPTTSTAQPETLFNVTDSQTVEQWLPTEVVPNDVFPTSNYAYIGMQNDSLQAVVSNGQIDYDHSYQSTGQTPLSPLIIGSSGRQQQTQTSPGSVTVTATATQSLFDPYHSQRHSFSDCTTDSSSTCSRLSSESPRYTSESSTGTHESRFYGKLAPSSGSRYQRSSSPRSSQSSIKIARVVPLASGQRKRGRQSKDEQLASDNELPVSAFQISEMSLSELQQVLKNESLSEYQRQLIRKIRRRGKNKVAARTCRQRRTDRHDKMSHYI

Row | SMILES | AC50 [1] | IC50 [3] | IC50 [5] | IC50 [6] | IC50 [4] | further results
1 | CCN(CC)CCNC(=O)c1cc2cc3ccc(OC)cc3nc2o1 | 40.7 µM (active) | – | – | – | – | –
2 | Cc1c(CN2CCCCC2)c(O)n(CCO)c(=O)c1C#N | – | – | – | – | – | IC50 [2]: > 50 µM (not active)
3 | CCCNc1nc2nc3ccccn3c(=O)c2cc1C(=O)NCCN1CCOCC1 | 32.4 µM (active) | – | – | – | – | –
4 | O=C(Cc1ccccc1F)Nc1ccc(SC(F)F)cc1 | – | 13.7 µM (active) | > 100 µM (inactive) | 41.8 µM (active) | > 100 µM (inactive) | –
5 | COc1ccc(N2C(=O)CC(Sc3nc[nH]n3)C2=O)c(OC)c1 (stereo not drawn) | – | – | – | – | – | IC50 [2]: > 50 µM (not active)
6 | O=C(/C=C/c1cccs1)c1ccc(N2CCOCC2)cc1 | – | 2.77 µM (active) | 5.47 µM (active) | 6.94 µM (active) | 5.04 µM (active) | IC50 [7]: > 100 µM (inactive)
7 | CC(=O)c1sc(N/N=C\c2ccccc2O)nc1C | – | 3.4 µM (active) | 10.3 µM (active) | 11 µM (active) | 16.3 µM (active) | –
8 | CN1CCN(CCCNC(=O)c2cc3c(=O)oc4ccccc4c3s2)CC1 | 38.1 µM (active) | – | – | – | – | –

More lines, main results first:

Row | AC50 [1] | IC50 [3] | IC50 [5] | IC50 [6] | SMILES | IC50 [4] | further results
9 | 57.7 µM (active) | – | – | – | Cc1nnc2c(N3CCN(CCO)CC3)nc3ccccc3n12 | – | –
10 | – | 7.98 µM (active) | 8.18 µM (active) | 9.98 µM (active) | O/C(=C\c1nc2ccccc2[nH]1)c1cccs1 | 13.1 µM (active) | –
11 | – | 6.62 µM (active) | 24.3 µM (active) | 17.4 µM (active) | O=C(Nc1ccc(NC(=O)c2cccs2)c(Cl)c1)c1cccs1 | 27.6 µM (active) | –
12 | 23.3 µM (active) | – | – | – | O=c1c2ccccc2oc2cc(NCCCN3CCOCC3)ccc12 | – | –
